From PMC9082524, “Aromatic heterocycle galectin-1 interactions for selective single-digit nM affinity ligands” (RSC Advances, 2018)
Where two headings read alike, the source gives them in different places. Each block holds one compound with its values, some of them ahead of it.

Assays:
[1] = target: T1, Human galectin-1 (Homo sapiens, UniProt P09382); assay: Competitive fluorescence polarization, galectin-1 with high-affinity fluorescent probe 25; assay type: binding; design: made in house; conditions: for Kd / Kd Galectin-1: galectin-1 50 nM, probe 25 1 nM, 100 nM BSA, rt, average ± SEM; for Galectin-3/galectin-1: ratio of Kd values, Table 2 (thiodigalactosides), galectin-1 selectivity over galectin-3
[2] = system: MCF-7; assay: MTT cytotoxicity assay, MCF-7; conditions: MCF-7 tumor cell line, 72 h, 0.04 μM to 40 μM
[3] = system: JIMT-1; assay: MTT cytotoxicity assay, JIMT-1; conditions: JIMT-1 tumor cell line, 72 h, 0.04 μM to 40 μM
[4] = system: MCF-10A; assay: MTT cytotoxicity assay, MCF-10A; conditions: MCF-10A normal cell line, 72 h, 0.04 μM to 40 μM
[5] = target: T1, Human galectin-1; assay: Competitive fluorescence polarization, galectin-1 (performed as described in ref 13); conditions: for Galectin-3/galectin-1: ratio of Kd values, Table 1 (monogalactosides)
[6] = system: JIMT-1
[7] = system: MCF-7
[8] = system: MCF-10A
[9] = target: T2, galectin-3 (Homo sapiens, UniProt P17931); assay: Competitive fluorescence polarization, galectin-3 (performed as described in ref 13)
[10] = target: T2, galectin-3; assay: Competitive fluorescence polarization, galectin-3 with improved-affinity probe (as described in ref 15); assay type: binding; design: made in house; conditions: average ± SEM

T2 sequence (P17931 whole entry): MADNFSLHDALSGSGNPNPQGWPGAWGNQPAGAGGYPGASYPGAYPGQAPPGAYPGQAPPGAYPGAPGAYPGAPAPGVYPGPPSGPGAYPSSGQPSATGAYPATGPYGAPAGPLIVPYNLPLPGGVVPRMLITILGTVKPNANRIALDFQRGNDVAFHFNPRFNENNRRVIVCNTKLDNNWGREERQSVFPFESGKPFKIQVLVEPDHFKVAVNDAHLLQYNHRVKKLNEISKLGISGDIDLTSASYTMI
T1 sequence (P09382 whole entry): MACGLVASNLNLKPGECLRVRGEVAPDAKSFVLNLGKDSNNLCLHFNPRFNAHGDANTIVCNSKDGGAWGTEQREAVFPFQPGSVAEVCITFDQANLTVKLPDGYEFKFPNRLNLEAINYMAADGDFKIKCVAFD

Structure (SMILES): OC[C@H]1O[C@@H](S[C@@H]2O[C@H](CO)[C@H](O)[C@H](n3cc(-c4ccsc4)nn3)[C@H]2O)[C@H](O)[C@@H](n2cc(-c3ccsc3)nn2)[C@H]1O [compound 1]
- Kd [1]: 0.0061 ± 0.001 µM
- Kd Galectin-1 [1]: single-digit
- Cytotoxicity [2]: non-cytotoxic
- Cytotoxicity [3]: non-cytotoxic
- Cytotoxicity [4]: non-cytotoxic

Structure (SMILES): Cc1ccc(S[C@@H]2O[C@H](CO)[C@H](O)[C@H](n3cc(C4CCCC4)nn3)[C@H]2O)cc1 [compound 4, p-Methylphenyl 3-deoxy-3-(4-cyclopentyl-1H-1,2,3-triazol-1-yl)-1-thio-β-D-galactopyranoside]
- Kd [5]: 370 ± 30 µM
- Galectin-3/galectin-1 [5]: 2.6

Structure (SMILES): Cc1ccc(S[C@@H]2O[C@H](CO)[C@H](O)[C@H](n3cc(-c4ccoc4)nn3)[C@H]2O)cc1 [compound 5, p-Methylphenyl 3-deoxy-3-[4-(furan-3-yl)-1H-1,2,3-triazol-1-yl]-1-thio-β-d-galactopyranoside]
- Kd [5]: 120 ± 7 µM
- Galectin-3/galectin-1 [5]: 2.1

Structure (SMILES): Cc1ccc(S[C@@H]2O[C@H](CO)[C@H](O)[C@H](n3cc(-c4cccs4)nn3)[C@H]2O)cc1 [compound 6, p-Methylphenyl 3-deoxy-3-[4-(thien-2-yl)-1H-1,2,3-triazol-1-yl]-1-thio-β-D-galactopyranoside]
- Cytotoxicity [6]: non-cytotoxic
- Cytotoxicity [7]: non-cytotoxic
- Cytotoxicity [8]: non-cytotoxic
- Kd [5]: 61 ± 4 µM

Structure (SMILES): Cc1ccc(S[C@@H]2O[C@H](CO)[C@H](O)[C@H](n3cc(-c4ccsc4)nn3)[C@H]2O)cc1 [compound 7, p-Methylphenyl 3-deoxy-3-[4-(thien-3-yl)-1H-1,2,3-triazol-1-yl]-1-thio-β-D-galactopyranoside]
- Cytotoxicity [6]: non-cytotoxic
- Cytotoxicity [7]: non-cytotoxic
- Cytotoxicity [8]: non-cytotoxic
- Kd [5]: 47 ± 2 µM

Structure (SMILES): Cc1ccc(S[C@@H]2O[C@H](CO)[C@H](O)[C@H](n3cc(-c4ncc[nH]4)nn3)[C@H]2O)cc1 [compound 8, p-Methylphenyl 3-deoxy-3-[4-(1H-imidazol-2-yl)-1H-1,2,3-triazol-1-yl]-1-thio-β-D-galactopyranoside]
- Kd [5]: 47 ± 3 µM
- Galectin-3/galectin-1 [5]: 4.7

Structure (SMILES): Cc1ccc(S[C@@H]2O[C@H](CO)[C@H](O)[C@H](n3cc(-c4c[nH]cn4)nn3)[C@H]2O)cc1 [compound 9, p-Methylphenyl 3-deoxy-3-[4-(1H-imidazol-4-yl)-1H-1,2,3-triazol-1-yl]-1-thio-β-D-galactopyranoside]
- Kd [5]: 140 ± 7 µM
- Galectin-3/galectin-1 [5]: 2.4

Structure (SMILES): O=C(O)CS[C@@H]1O[C@H](CO)[C@H](O)[C@H](n2cc(-c3ccsc3)nn2)[C@H]1O [compound 12, Carboxymethyl 3-deoxy-3-[4-(thien-3-yl)-1H-1,2,3-triazol-1-yl]-1-thio-β-D-galactopyranoside]
- Cytotoxicity [2]: non-cytotoxic
- Cytotoxicity [3]: non-cytotoxic
- Cytotoxicity [4]: non-cytotoxic
- Kd [5]: 58 ± 4 µM
- Galectin-3/galectin-1 [5]: 3.4
- Kd [9]: 200 ± 7 µM

Structure (SMILES): O=C(O)CS[C@@H]1O[C@H](CO)[C@H](O)[C@H](n2cc(-c3nccs3)nn2)[C@H]1O [compound 13, Carboxymethyl 3-deoxy-3-[4-(thiazol-2-yl)-1H-1,2,3-triazol-1-yl]-1-thio-β-D-galactopyranoside]
- Cytotoxicity [2]: non-cytotoxic
- Cytotoxicity [3]: non-cytotoxic
- Cytotoxicity [4]: non-cytotoxic
- Kd [5]: 43 ± 2 µM
- Kd [9]: 280 ± 7 µM

Structure (SMILES): O=C(O)CS[C@@H]1O[C@H](CO)[C@H](O)[C@H](n2cc(-c3cscn3)nn2)[C@H]1O [compound 14, Carboxymethyl 3-deoxy-3-[4-(thiazol-4-yl)-1H-1,2,3-triazol-1-yl]-1-thio-β-D-galactopyranoside]
- Cytotoxicity [2]: non-cytotoxic
- Cytotoxicity [3]: non-cytotoxic
- Cytotoxicity [4]: non-cytotoxic
- Kd [5]: 62 ± 2 µM
- Galectin-3/galectin-1 [5]: 8.7
- Kd [9]: 540 ± 30 µM

Structure (SMILES): O=C(O)CS[C@@H]1O[C@H](CO)[C@H](O)[C@H](n2cc(-c3cncs3)nn2)[C@H]1O [compound 15, Carboxymethyl 3-deoxy-3-[4-(thiazol-5-yl)-1H-1,2,3-triazol-1-yl]-1-thio-β-D-galactopyranoside]
- Kd [5]: 180 ± 9 µM
- Galectin-3/galectin-1 [5]: 2.4
- Kd [9]: 430 ± 20 µM

Structure (SMILES): OC[C@H]1O[C@@H](S[C@@H]2O[C@H](CO)[C@H](O)[C@H](n3cc(-c4nccs4)nn3)[C@H]2O)[C@H](O)[C@@H](n2cc(-c3nccs3)nn2)[C@H]1O [compound 19, 1,1′-Sulfanediyl-bis-{3-deoxy-3-[4-(thiazol-2-yl)-1H-1,2,3-triazol-1-yl]-β-D-galactopyranoside}]
- Kd [1]: 0.0084 ± 0.001 µM
- Kd Galectin-1 [1]: single-digit
- Cytotoxicity [2]: non-cytotoxic
- Cytotoxicity [3]: non-cytotoxic
- Cytotoxicity [4]: non-cytotoxic

Continued, values first:

- Galectin-3/galectin-1 [5]: 0.2
Structure (SMILES): Cc1ccc(S[C@@H]2O[C@H](CO)[C@H](O)[C@H](O)[C@H]2O)cc1 [compound 16, reference compound]

- Kd [5]: 430 ± 40 µM
- Galectin-3/galectin-1 [5]: 4.2
- Kd [9]: 1800 ± 100 µM
Structure (SMILES): O=C(O)CS[C@@H]1O[C@H](CO)[C@H](O)[C@H](O)[C@H]1O [compound 17, reference compound]

- Increased galectin-1 selectivity compared to corresponding monogalactoside [1]: 2 fold
- Lower affinity for galectin-1 than thiophene 1 [1]: 4 fold
- Kd [1]: 0.025 ± 0.002 µM
- Galectin-3/galectin-1 [1]: 7.2
- Kd [10]: 0.18 ± 0.01 µM
Structure (SMILES): OC[C@H]1O[C@@H](S[C@@H]2O[C@H](CO)[C@H](O)[C@H](n3cc(-c4ncc[nH]4)nn3)[C@H]2O)[C@H](O)[C@@H](n2cc(-c3ncc[nH]3)nn2)[C@H]1O [compound 20, 1,1′-Sulfanediyl-bis-{3-deoxy-3-[4-(1H-imidazol-2-yl)-1H-1,2,3-triazol-1-yl]-β-D-galactopyranoside}]

- Increased galectin-1 selectivity compared to corresponding monogalactoside [1]: 2 fold
- Kd [1]: 0.012 ± 0.001 µM
- Galectin-3/galectin-1 [1]: 5.1
- Kd [10]: 0.061 ± 0.003 µM
Structure (SMILES): OC[C@H]1O[C@@H](S[C@@H]2O[C@H](CO)[C@H](O)[C@H](n3cc(-c4nccs4)nn3)[C@H]2O)[C@H](O)[C@@H](n2cc(-c3ccsc3)nn2)[C@H]1O [compound 22, 3,3′-Dideoxy-3-[4-(thiazol-2-yl)-1H-1,2,3-triazol-1-yl]-3′-[4-(thien-3-yl)-1H-1,2,3-triazol-1-yl]-1,1′-sulfanediyl-di-β-D-galactopyranoside]

- Kd [1]: 0.013 ± 0.001 µM
- Galectin-3/galectin-1 [1]: 0.14
- Kd [10]: 0.0018 ± 0.0002 µM
Structure (SMILES): OC[C@H]1O[C@@H](S[C@@H]2O[C@H](CO)[C@H](O)[C@H](n3cc(-c4nccs4)nn3)[C@H]2O)[C@H](O)[C@@H](n2cc(-c3ccc(F)c(F)c3)nn2)[C@H]1O [compound 23, 3,3′-Dideoxy-3′-[4-(3,4-difluorophenyl)-1H-1,2,3-triazol-1-yl]-3-[4-(thiazol-2-yl)-1H-1,2,3-triazol-1-yl]-1,1′-sulfanediyl-di-β-D-galactopyranoside]
